Experimental data published in US7741341B2, “Benzimidazole-derivatives as factor Xa inhibitors” (sanofi-aventis Deutschland GmbH, priority 2003, dated 2010).

Molecular target: T1, human factor Xa (Homo sapiens, UniProt P00742)
T1 construct: human factor Xa (Enzyme Research Laboratories, Inc; South Bend, Ind.); purchased Enzyme Research Laboratories, Inc; South Bend, Ind
Assay: Factor Xa assay (chromogenic, substrate S-2765)
Type: biochemical
Conditions: read-out: Ki(FXa)
Outline: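 Purified human factor Xa (0.5 nM final) in TBS-PEG was preincubated 10 min with compound in DMSO-containing buffer. The reaction was started with chromogenic substrate S-2765 at 140 μM. IC50 was taken from the concentration series.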

T1 sequence (P00742 235-488 limits assumed): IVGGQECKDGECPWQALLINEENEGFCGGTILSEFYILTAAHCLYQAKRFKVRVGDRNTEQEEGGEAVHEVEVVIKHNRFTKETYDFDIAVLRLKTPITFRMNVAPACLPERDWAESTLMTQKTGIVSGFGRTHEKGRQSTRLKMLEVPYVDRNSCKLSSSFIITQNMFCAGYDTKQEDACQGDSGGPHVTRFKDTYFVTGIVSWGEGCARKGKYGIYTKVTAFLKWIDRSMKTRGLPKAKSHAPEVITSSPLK
T1 sequence (P00742 41-179 partner limits assumed): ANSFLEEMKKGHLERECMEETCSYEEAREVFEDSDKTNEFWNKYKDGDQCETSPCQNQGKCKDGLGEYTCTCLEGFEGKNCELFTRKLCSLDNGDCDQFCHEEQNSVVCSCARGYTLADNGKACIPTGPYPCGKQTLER

| Structure (SMILES) | Ki [nM] |
| --- | --- |
| CC(OC(=O)OC1CCCCC1)OC(=O)c1ccc2c(c1)nc(C(=O)NC1CCN(C(C)C)CC1)n2Cc1cc(-c2ccc(Cl)s2)on1 (stereo not shown) [Example 28, 1-[5-(5-Chloro-thiophen-2-yl)-isoxazol-3-ylmethyl]-2-(1-isopropyl-piperidin-4-ylcarbamoyl)-1H-benzoimidazole-5-carboxylic acid 1-cyclohexyloxycarbonyloxy-ethyl ester] | 48 |
| COC(=O)c1cccc2c1nc(C(=O)NC1CCN(C(C)C)CC1)n2Cc1cc(-c2ccc(Cl)s2)on1 [Example 11a, 1-[5-(5-Chloro-thiophen-2-yl)-isoxazol-3-ylmethyl]-2-(1-isopropyl-piperidin-4-ylcarbamoyl)-1H-benzoimidazole-4-carboxylic acid methyl ester] | 4 |
| CC(OC(=O)OC1CCCCC1)OC(=O)c1cccc2c1nc(C(=O)NC1CCN(C(C)C)CC1)n2CC(=O)Nc1ccc(Cl)cn1 (stereo not shown) [Example 34, 1-[(5-Chloro-pyridin-2-ylcarbamoyl)-methyl]-2-(1-isopropyl-piperidin-4-ylcarbamoyl)-1H-benzoimidazole-4-carboxylic acid 1-cyclohexyloxycarbonyloxy-ethyl ester] | 19.5 |
| O=C(Nc1ccc(-n2ccncc2=O)cc1)c1nc2ccccc2n1Cc1cc(-c2ccc(Cl)s2)on1 [Example 48, 1-[5-(5-Chloro-thiophen-2-yl)-isoxazol-3-ylmethyl]-1H-benzoimidazole-2-carboxylic acid [4-(2-oxo-2H-pyrazin-1-yl)-phenyl]-amide] | 2 |
| O=C(Nc1ccc(-n2ccc(=O)cc2)cc1)c1nc2ccccc2n1Cc1cc(-c2ccc(Cl)s2)on1 [Example 37, 1-[5-(5-Chloro-thiophen-2-yl)-isoxazol-3-ylmethyl]-1H-benzoimidazole-2-carboxylic acid [4-(4-oxo-4H-pyridin-1-yl)-phenyl]-amide] | 12 |
| COCCOc1cccc2c1nc(C(=O)Nc1ccc(N3CCOCC3=O)cc1)n2CC(=O)Nc1ccc(Cl)cn1 [Example 52, 1-[(5-Chloro-pyridin-2-ylcarbamoyl)-methyl]-4-(2-methoxy-ethoxy)-1H-benzoimidazole-2-carboxylic acid [4-(3-oxo-morpholin-4-yl)-phenyl]-amide] | 14 |
| CC(C)N1CCC(NC(=O)c2nc3c(C(=O)OCC4CC4)cccc3n2CC(=O)Nc2ccc(Cl)cn2)CC1 [Example 69, 1-[(5-Chloro-pyridin-2-ylcarbamoyl)-methyl]-2-(1-isopropyl-piperidin-4-ylcarbamoyl)-1H-benzoimidazole-4-carboxylic acid cyclopropylmethyl ester] | 15 |
| O=C(Cn1c(C(=O)Nc2ccc(-n3ccc(=O)[nH]c3=O)cc2)nc2ccccc21)Nc1ccc(Cl)cn1 [Example 44, 1-[(5-Chloro-pyridin-2-ylcarbamoyl)-methyl]-1H-benzoimidazole-2-carboxylic acid [4-(2,4-dioxo-3,4-dihydro-2H-pyrimidin-1-yl)-phenyl]-amide] | 28 |
| CC(C)N1CCC(NC(=O)c2nc3c(C(=O)OCCO)cccc3n2Cc2cc(-c3ccc(Cl)s3)on2)CC1 [Example 64, 1-[5-(5-Chloro-thiophen-2-yl)-isoxazol-3-ylmethyl]-2-(1-isopropyl-piperidin-4-ylcarbamoyl)-1H-benzoimidazole-4-carboxylic acid 2-hydroxy-ethyl ester] | 2 |
| COC(=O)c1cccc2nc(C(=O)NC3CCN(C(C)C)CC3)n(Cc3cc(-c4ccc(Cl)s4)on3)c12 [Example 11b, 3-[5-(5-Chloro-thiophen-2-yl)-isoxazol-3-ylmethyl]-2-(1-isopropyl-piperidin-4-ylcarbamoyl)-3H-benzoimidazole-4-carboxylic acid methyl ester] | 1 |

The remaining lines, values ahead:

| Ki [nM] | Structure (SMILES) |
| --- | --- |
| 141 | O=C(Nc1ccc(N2CCNCC2=O)cc1)c1nc2ccccc2n1Cc1cc(-c2ccc(Cl)s2)on1 [Example 50, 1-[5-(5-Chloro-thiophen-2-yl)-isoxazol-3-ylmethyl]-1H-benzoimidazole-2-carboxylic acid [4-(2-oxo-piperazin-1-yl)-phenyl]-amide] |
| 65 | CC(C)N1CCC(NC(=O)c2nc3cc(C(=O)N(C)CCO)ccc3n2Cc2cc(-c3ccc(Cl)s3)on2)CC1 [Example 25, 1-[5-(5-Chloro-thiophen-2-yl)-isoxazol-3-ylmethyl]-1H-benzoimidazole-2,5-dicarboxylic acid 5-[(2-hydroxy-ethyl)-methyl-amide] 2-[(1-isopropyl-piperidin-4-yl)-amide]] |
| 3.1 | CC(C)N1CCC(NC(=O)c2nc3ccccc3n2CC(=O)Nc2ccc(Cl)cc2)CC1 [Example 2, 1-[(4-Chloro-phenylcarbamoyl)-methyl]-1H-benzoimidazole-2-carboxylic acid (1-isopropyl-piperidin-4-yl)-amide] |
| 20 | CN1C2CCC1CC(NC(=O)c1nc3ccccc3n1Cc1cc(-c3ccc(Cl)s3)on1)C2 (stereo not shown) [Example 40, 1-[5-(5-Chloro-thiophen-2-yl)-isoxazol-3-ylmethyl]-1H-benzoimidazole-2-carboxylic acid (8-methyl-8-aza-bicyclo[3.2.1]oct-3-yl)-amide] |
| 23.5 | CC(C)N1CCC(NC(=O)c2nc3ccc(C(=O)O)cc3n2CC(=O)Nc2ccc(Cl)cn2)CC1 [Example 19, 3-[(5-Chloro-pyridin-2-ylcarbamoyl)-methyl]-2-(1-isopropyl-piperidin-4-ylcarbamoyl)-3H-benzoimidazole-5-carboxylic acid] |
| 687 | CCOC(=O)OC(C)OC(=O)c1ccc2nc(C(=O)NC3CCN(C(C)C)CC3)n(CC(=O)Nc3ccc(Cl)cn3)c2c1 (stereo not shown) [Example 63, 3-[(5-Chloro-pyridin-2-ylcarbamoyl)-methyl]-2-(1-isopropyl-piperidin-4-ylcarbamoyl)-3H-benzoimidazole-5-carboxylic acid 1-ethoxycarbonyloxy-ethyl ester] |
